The record followed here is PubChem BioAssay AID1259411 (Chemical Carcinogenesis Research Information System (CCRIS), 2018).

The source made the active and inactive calls. The rule behind the calls is not given here.

For this series, the system named is rodent carcinogenicity bioassays, tumor incidence. Description: CCRIS carcinogenicity studies. In outline:
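NCI-built, expert-reviewed records of carcinogenicity and related test outcomes (mutagenicity, tumor promotion/inhibition) compiled from published and report sources, historical span 1985-2011, not updated.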

`O[C@H]1C=Cc2c(ccc3ncccc23)[C@@H]1O`: the carcinogen call (Species: MOUSE, Strain/Sex: CD-1/FEMALE, Route: INTRAPERITONEAL, Dose: 0, 5, 10 AND 20 µL OF A 0.05 MOLAR SOLUTION ON DAYS 1, 8 AND 15 OF LIFE RESPECTIVELY (TOTAL DOSE: 1.75 UMOL) (STUDY DURA, Dose: 0, 5, 10 AND 20 µL OF A 0.05 MOLAR SOLUTION ON DAYS 1, 8 AND 15 OF LIFE RESPECTIVELY (TOTAL DOSE: 1.75 UMOL) (STUDY DURA) is “inactive; negative” and the carcinogen call (Species: MOUSE, Strain/Sex: CD-1/MALE, Route: INTRAPERITONEAL, Dose: 0, 5, 10 AND 20 µL OF A 0.05 MOLAR SOLUTION ON DAYS 1, 8 AND 15 OF LIFE RESPECTIVELY (TOTAL DOSE: 1.75 UMOL) (STUDY DURA, Dose: 0, 5, 10 AND 20 µL OF A 0.05 MOLAR SOLUTION ON DAYS 1, 8 AND 15 OF LIFE RESPECTIVELY (TOTAL DOSE: 1.75 UMOL) (STUDY DURA) is “inactive; negative”.
Take `Cc1ccc([N+](=O)[O-])cc1`: the carcinogen call reads like this: (Species: MOUSE, Strain/Sex: B6C3F1/FEMALE, Route: ORAL, Dose: 0, 1250, 2500, 5000 PPM FOR 105-106 WK (STUDY DURATION: 105-106 WK), Dose: 0, 1250, 2500, 5000 PPM FOR 105-106 WK (STUDY DURATION: 105-106 WK)) “inactive; negative”; (Species: MOUSE, Strain/Sex: B6C3F1/MALE, Route: ORAL, Dose: 0, 1250, 2500, 5000 PPM FOR 105-106 WK (STUDY DURATION: 105-106 WK), Dose: 0, 1250, 2500, 5000 PPM FOR 105-106 WK (STUDY DURATION: 105-106 WK), Tumor Site: Type of Lesion: LUNG: ALVEOLAR/BRONCHIOLAR ADENOMA OR CARCINOMA) “equivocal”; (Species: RAT, Strain/Sex: F344/FEMALE, Route: ORAL, Dose: 0, 1250, 2500, 5000 PPM FOR 105-106 WK (STUDY DURATION: 105-106 WK), Dose: 0, 1250, 2500, 5000 PPM FOR 105-106 WK (STUDY DURATION: 105-106 WK), Tumor Site: Type of Lesion: CLITORAL GLAND: ADENOMA OR CARCINOMA) “active; positive”; (Species: RAT, Strain/Sex: F344/MALE, Route: ORAL, Dose: 0, 1250, 2500, 5000 PPM FOR 105-106 WK (STUDY DURATION: 105-106 WK), Dose: 0, 1250, 2500, 5000 PPM FOR 105-106 WK (STUDY DURATION: 105-106 WK), Tumor Site: Type of Lesion: SKIN (SUBCUTANEOUS):FIBROMA, FIBROMA OR FIBROSARCOMA) “equivocal”.
Regarding `C[C@]12CCC(=O)C=C1CC[C@@H]1[C@@H]2CC[C@]2(C)C(=O)CC[C@@H]12`, the carcinogen call (Species: Mouse, Strain/Sex: B6C3F1/Female (50/Group), Route: Oral, Dose: 0, 2, 10, 50 mg/kg in 0.5% methylcellulose solution, by gavage, 5 d/wk for 2 yr, Dose: 0, 2, 10, 50 mg/kg in 0.5% methylcellulose solution, by gavage, 5 d/wk for 2 yr, Tumor Site: Type of Lesion: Liver: hepatocellular adenoma (14/50, 16/50, 18/50, 28/50), hepatocellular carcinoma (5/50, 13/50, 15/50, 15/50), hepato, Tumor Site: Type of Lesion: Liver: hepatocellular adenoma (14/50, 16/50, 18/50, 28/50), hepatocellular carcinoma (5/50, 13/50, 15/50, 15/50), hepato) was “active; positive. (authors describe as clear evidence)”; the carcinogen call (Species: Mouse, Strain/Sex: B6C3F1/Male (50/Group), Route: Oral, Dose: 0, 10, 20, 50 mg/kg in 0.5% methylcellulose solution, by gavage, 5 d/wk for 2 yr, Dose: 0, 10, 20, 50 mg/kg in 0.5% methylcellulose solution, by gavage, 5 d/wk for 2 yr, Tumor Site: Type of Lesion: Liver: hepatocellular adenoma, multiple (16/50, 27/50, 23/50, 34/50), hepatocellular adenoma (includes multiples) (32/50) is “active; positive. (authors describe as clear evidence)”; the carcinogen call (Species: Rat, Strain/Sex: F344/N / Female (50/Group), Route: Oral, Dose: 0, 10, 20, 50 mg/kg in 0.5% methylcellulose solution, by gavage, 5 d/wk for 2 yr, Dose: 0, 10, 20, 50 mg/kg in 0.5% methylcellulose solution, by gavage, 5 d/wk for 2 yr) was “inactive; negative. (authors describe as equivocal evidence based on incidence of mononucl”; the carcinogen call (Species: Rat, Strain/Sex: F344/N / Male (50/Group), Route: Oral, Dose: 0, 10, 20, 50 mg/kg in 0.5% methylcellulose solution, by gavage, 5 d/wk for 2 yr, Dose: 0, 10, 20, 50 mg/kg in 0.5% methylcellulose solution, by gavage, 5 d/wk for 2 yr) is “inactive; negative. (authors describe as equivocal evidence based on alveolar/bronchiolar”.
Take `Cn1c(=O)c2c(ncn2C)n(C)c1=O` (tested in a mixture with another compound): the carcinogen call reads like this: (Species: MOUSE, Strain/Sex: B6C3F1/FEMALE, Route: ORAL, Dose: 0, 0.7, 1.4% OF DIET FOR 78 WK (STUDY DURATION: 94 WK), Dose: 0, 0.7, 1.4% OF DIET FOR 78 WK (STUDY DURATION: 94 WK)) “inactive; negative”; (Species: MOUSE, Strain/Sex: B6C3F1/MALE, Route: ORAL, Dose: 0, 0.7, 1.4% OF DIET FOR 78 WK (STUDY DURATION: 94 WK), Dose: 0, 0.7, 1.4% OF DIET FOR 78 WK (STUDY DURATION: 94 WK)) “inactive; negative”; (Species: RAT, Strain/Sex: F344/FEMALE, Route: ORAL, Dose: 0, 0.7, 1.4% OF DIET FOR 78 WK (STUDY DURATION: 113 WK), Dose: 0, 0.7, 1.4% OF DIET FOR 78 WK (STUDY DURATION: 113 WK), Tumor Site: Type of Lesion: BLADDER: TRANSITIONAL CELL CARCINOMA, KIDNEY: TUBULAR CELL ADENOCARCINOMA, TRANSITIONAL CELL PAPILLOMA) “equivocal”; (Species: RAT, Strain/Sex: F344/MALE, Route: ORAL, Dose: 0, 0.7, 1.4% OF DIET FOR 78 WK (STUDY DURATION: 113 WK), Dose: 0, 0.7, 1.4% OF DIET FOR 78 WK (STUDY DURATION: 113 WK)) “inactive; negative”.
In the case of `NS(=O)(=O)c1cc2c(cc1Cl)NCNS2(=O)=O`, the carcinogen call reads like this: (Species: MOUSE, Strain/Sex: B6C3F1/FEMALE, Route: ORAL, Dose: 0, 2500, 5000 PPM IN FEED FOR 103-104 WK (STUDY DURATION: 106 WK), Dose: 0, 2500, 5000 PPM IN FEED FOR 103-104 WK (STUDY DURATION: 106 WK)) “inactive; negative”; (Species: MOUSE, Strain/Sex: B6C3F1/MALE, Route: ORAL, Dose: 0, 2500, 5000 PPM IN FEED FOR 103-104 WK (STUDY DURATION: 106 WK), Dose: 0, 2500, 5000 PPM IN FEED FOR 103-104 WK (STUDY DURATION: 106 WK), Tumor Site: Type of Lesion: LIVER: HEPATOCELLULAR ADENOMA OR CARCINOMA) “equivocal”; (Species: RAT, Strain/Sex: F344/FEMALE, Route: ORAL, Dose: 0, 0.1% IN DIET FOR 104 WK (STUDY DURATION: 130 WK)) “inactive; negative”; (Species: RAT, Strain/Sex: F344/FEMALE, Route: ORAL, Dose: 0, 250, 500, 2000 PPM IN FEED FOR 105-106 WK (STUDY DURATION: 106 WK), Dose: 0, 250, 500, 2000 PPM IN FEED FOR 105-106 WK (STUDY DURATION: 106 WK)) “inactive; negative”; (Species: RAT, Strain/Sex: F344/MALE, Route: ORAL, Dose: 0, 0.1% IN DIET FOR 104 WK (STUDY DURATION: 130 WK)) “inactive; negative”; (Species: RAT, Strain/Sex: F344/MALE, Route: ORAL, Dose: 0, 250, 500, 2000 PPM IN FEED FOR 105-106 WK (STUDY DURATION: 106 WK), Dose: 0, 250, 500, 2000 PPM IN FEED FOR 105-106 WK (STUDY DURATION: 106 WK)) “inactive; negative”.
As for `O=C(O)c1ccccc1O`, the carcinogen call reads like this: (Species: Mouse, Strain/Sex: SKH-1/Female (18/Group), Route: Dermal, Dose: 0, 2, 4% administered as topical cream (pH 4) , 5 d/wk, 40 wk, animals held an additional 12 wk for study duration of 1, Tumor Site: Type of Lesion: Skin: Carcinoma in situ, squamous cell carcinoma, basal cell carcinoma) “inactive; negative. when synthetic solar light (ssl) at 0.3 and 0.6 the minimal erythema d”; (Species: Mouse, Strain/Sex: SKH-1/Male (18/Group), Route: Dermal, Dose: 0, 2, 4% administered as topical cream (pH 4) , 5 d/wk, 40 wk, animals held an additional 12 wk for study duration of 1, Tumor Site: Type of Lesion: Skin: Carcinoma in situ, squamous cell carcinoma, basal cell carcinoma) “inactive; negative. when synthetic solar light (ssl) at 0.3 and 0.6 the minimal erythema d”.
Take `CN(C)C(=O)NN=O`: the carcinogen call (Species: HAMSTER, Strain/Sex: SYRIAN/FEMALE, Route: SUBCUTANEOUS, Dose: 40 MG/KG 1/WK, Tumor Site: Type of Lesion: FORESTOMACH: SQUAMOUS CELL CARCINOMA, MAMMARY GLAND: ADENOCARCINOMA OR ADENOACANTHOMA, UTERUS: ADENOACANTHOMA, Tumor Site: Type of Lesion: FORESTOMACH: SQUAMOUS CELL CARCINOMA, MAMMARY GLAND: ADENOCARCINOMA OR ADENOACANTHOMA, UTERUS: ADENOACANTHOMA) is “active; positive”; the carcinogen call (Species: HAMSTER, Strain/Sex: SYRIAN/MALE, Route: SUBCUTANEOUS, Dose: 40 MG/KG 1/WK, Tumor Site: Type of Lesion: FORESTOMACH: SQUAMOUS CELL CARCINOMA) is “active; positive”; the carcinogen call (Species: MOUSE, Strain/Sex: C3H/FEMALE, Route: SUBCUTANEOUS, Dose: 80 MG/KG 1/WK (TOTAL AVE DOSE 1015 MG/KG), Tumor Site: Type of Lesion: LYMPHATIC SYSTEM: MALIGNANT LYMPHOMA) is “active; positive”; the carcinogen call (Species: MOUSE, Strain/Sex: C3H/MALE, Route: SUBCUTANEOUS, Dose: 80 MG/KG 1/WK (TOTAL AVE DOSE 1073 MG/KG), Tumor Site: Type of Lesion: LYMPHATIC SYSTEM: MALIGNANT LYMPHOMA) is “active; positive”.
